Laboratory results as given in paper PMC11962866 (RSC Advances, 2025).
Converted amounts (≈) assume the structure as drawn. “Also recorded” adds a separate entry of the source.

Assays:
MRC-5 cells = test: Cytotoxicity assay on normal cells; type: cell-based, human; settings: Homo sapiens, MRC5, 72 h, read-out: IC50 on MRC-5 cell lines
Strain 904 [1] = test: ROS level; type: cell-based, Candida albicans; settings: 0.25 μg mL^−1, compared to blank and fluconazole groups
[2] = tested on: five fluconazole-resistant strains obtained from clinical isolation; test: Antifungal activity, span over five fluconazole-resistant strains; type: cell-based, Candida albicans; settings: Candida albicans, read-out: MIC80 span over the tested resistant strains
Strain 17# = test: Antifungal activity against fluconazole-resistant strain; type: cell-based; settings: Candida albicans, read-out: MIC80 Strain 17#
C. neo = test: In vitro antifungal assay; type: cell-based; settings: Cryptococcus neoformans, read-out: MIC80 C. neo
[3] = Metabolic stability assay of liver microsomes; type: in vitro ADME; settings: mouse
Strain 632 = test: Antifungal activity against fluconazole-resistant strain; type: cell-based; settings: Candida albicans, 632, read-out: MIC80 Strain 632
[4] = tested on: ERG11 and CDR1 of azole-resistant strain 904; test: RT-PCR expression of resistant genes ERG11 and CDR1; type: cell-based, Candida albicans; settings: 0.25 μg mL^−1, strain 904, RT-PCR
Strain CaR = test: Antifungal activity against fluconazole-resistant strain; type: cell-based; settings: Candida albicans, read-out: MIC80 Strain CaR
[5] = tested on: strain 904, fluconazole-resistant strain of C. albicans; test: Minimum fungicidal concentration; type: cell-based, Candida albicans; settings: strain 904
C. alb (SC5314) = test: In vitro antifungal assay; type: cell-based; settings: Candida albicans, SC5314, read-out: MIC80 C. alb (SC5314)
C. alb SC5314 [6] = test: Morphological observation of fungal cells by TEM; type: cell-based, Candida albicans; settings: 2 μg mL^−1, 24 h
[7] = tested on: azole-resistant strain 904; test: Yeast-to-hypha morphological transition; type: cell-based, Candida albicans; settings: 0.25 μg mL^−1, 5 h
Strain 901 = test: Antifungal activity against fluconazole-resistant strain; type: cell-based; settings: Candida albicans, 901, read-out: MIC80 Strain 901
Strain 904 [8] = test: as above; type: cell-based, Candida albicans
Strain 904 [9] = test: Time-kill test; type: cell-based, Candida albicans; settings: A11 at 8 × MIC, 16 × MIC, 32 × MIC
C. alb SC5314 [10] = test: GC-MS analysis of sterol composition; type: cell-based, Candida albicans; settings: 0.03 μg mL^−1, 24 h
[11] = tested on: azole-resistant strain 904; test: In vivo antifungal potency, mouse infection model, kidney fungal burden; settings: mice, tail vein infection with strain 904, intraperitoneal, day 5
Plasma stability assay = settings: male, SD, rat
[12] = tested on: azole-resistant strain 904; test: Biofilm formation; type: cell-based, Candida albicans

O=C(Nc1ccc(F)cc1F)c1ccc(COC(Cn2ccnc2)c2ccc(Cl)cc2Cl)cc1 (centres unmarked) [A11, 4-((1-(2,4-Dichlorophenyl)-2-(1H-imidazol-1-yl)ethoxy)methyl)-N-(2,4-difluorophenyl)benzamide]
IC50 (MRC-5 cells): > 100 µM | Intracellular ROS levels (Strain 904 [1]): significant increase in intracellular ROS levels | MIC80 [2]: 0.125 to 2 µg/mL (≈ 0.249 to 3.98 µM) | MIC80 (Strain 17#): 1 µg/mL (≈ 1.99 µM) | MIC80 (C. neo): 0.06 µg/mL (≈ 0.119 µM) | half-life [3]: 15.5 min | microsomal CLint [3]: 89.4 µL/min/mg | MIC80 (Strain 632): 2 µg/mL (≈ 3.98 µM) | Expression of ERG11 and CDR1 [4]: reduced to basic levels | MIC80 (Strain CaR): 2 µg/mL (≈ 3.98 µM) | MFC/MIC [5]: 16 | MIC80 (C. alb (SC5314)): 0.03 µg/mL (≈ 0.0597 µM) | Fungal cell morphology (TEM) (C. alb SC5314 [6]): disrupt the structural integrity of the cells | Morphological transition from yeast to hyphae [7]: completely hindered the morphogenetic transition | MIC80 (Strain 901): 1 µg/mL (≈ 1.99 µM) | MIC80 (Strain 904 [8]; Candida albicans, 904, read-out: MIC80 Strain 904): 0.125 µg/mL (≈ 0.249 µM) | MIC (Strain 904 [8]; Candida albicans, 904, read-out: MIC against C. alb): 0.125 µg/mL (≈ 0.249 µM) | Time-kill fungicidal effect (Strain 904 [9]): potent fungicidal effects at three concentrations | Effect on ergosterol biosynthesis / sterol composition (C. alb SC5314 [10]): effectively suppresses ergosterol biosynthesis | Efficacy in vivo (CFU fungal burden in kidneys) [11]: potent efficacy; also recorded: significantly reduced fungal burden | half-life (Plasma stability assay): > 360 min | remaining at 3 h (Plasma stability assay): 73.9% | Effect on mature biofilms [12]: dose-dependent destruction of mature fungal biofilms
